Paper PMC9127750, “Structure-based design of CDC42 effector interaction inhibitors for the treatment of cancer” (Cell reports, 2022)
Several values for one entry are separate records, joined by “and”; a condition that tells them apart may be missing. Equal entries are not always repeated.

System: WM3248 melanoma cells, 486 antibodies
Test: Reverse phase protein arrays (RPPA)
Assay type: cell-based, Human
Excerpt: Pellets were snap frozen in liquid nitrogen and shipped to MD Anderson Cancer Center core RPPA facility for RPPA analysis (Table S5). Three biological replicates for each sample were generated.
Nomenclatures on the RPPA heatmaps: name_of_antibody.species_of_antibody.status_of_antibody. V - antibody validated; C - validation of antibody in progress; Q - antibody nonspecific; E – under evaluation; antibodies raised in M - mouse, G - goat, R - rabbit, or T - rat.

CN(C)c1cccc(Nc2cc(-c3ccccc3)nc(C3CCNCC3)n2)c1 [ARN22089, N1,N1-dimethyl-N3-(6-phenyl-2-(piperidin-4-yl)pyrimidin-4-yl)benzene-1,3-diamine]
CD31.M.V normalized signal (Norm_10 Average): 0.960
CD38.R.C normalized signal (Norm_10 Average): 0.936
CD45.M.V normalized signal (Norm_10 Average): 0.964
CD68.M.C normalized signal (Norm_10 Average): 1.001
CD134.R.V normalized signal (Norm_10 Average): 0.970
CD171.M.V normalized signal (Norm_10 Average): 0.831
CDK1_pT14.R.C normalized signal (Norm_10 Average): 0.888
CDK9.R.V normalized signal (Norm_10 Average): 0.988
CDKN2A.R.C normalized signal (Norm_10 Average): 0.963
CDT1.R.V normalized signal (Norm_10 Average): 0.925
CENP.A.R.V normalized signal (Norm_10 Average): 0.967
CHD1L.R.V normalized signal (Norm_10 Average): 1.025
COG3.R.V normalized signal (Norm_10 Average): 1.013
CRABP1.R.C normalized signal (Norm_10 Average): 0.993
CRABP2.R.V normalized signal (Norm_10 Average): 0.915
CSK.R.C normalized signal (Norm_10 Average): 0.971
Calnexin.R.V normalized signal (Norm_10 Average): 1.021
Caspase.3.cleaved.R.C normalized signal (Norm_10 Average): 0.926
Caspase.7.cleaved..R.C normalized signal (Norm_10 Average): 1.030
Caspase.8.M.Q normalized signal (Norm_10 Average): 0.998
Caspase.8.cleaved.R.C normalized signal (Norm_10 Average): 0.924
Cdc6.R.V normalized signal (Norm_10 Average): 0.962
Cdc42.R.C normalized signal (Norm_10 Average): 0.966
Chk1.M.C normalized signal (Norm_10 Average): 0.942
Chk1_pS296.R.V normalized signal (Norm_10 Average): 0.948
Chk1_pS345.R.C normalized signal (Norm_10 Average): 1.019
Chk2.M.V normalized signal (Norm_10 Average): 0.971
Chk2_pT68.R.C normalized signal (Norm_10 Average): 0.963
Claudin.7.R.V normalized signal (Norm_10 Average): 1.252
Collagen.VI.R.V normalized signal (Norm_10 Average): 1.085
Complex.II.Subunit.M.V normalized signal (Norm_10 Average): 1.079
Connexin.43.R.C normalized signal (Norm_10 Average): 1.004
Cox2.R.C normalized signal (Norm_10 Average): 1.057
Creb.R.C normalized signal (Norm_10 Average): 0.975
CtIP.R.V normalized signal (Norm_10 Average): 0.953
Cyclin.B1.R.V normalized signal (Norm_10 Average): 0.844
Cyclin.D1.R.C normalized signal (Norm_10 Average): 1.008
Cyclin.D3.M.V normalized signal (Norm_10 Average): 0.934
Cyclophilin.F.M.V normalized signal (Norm_10 Average): 0.980
DAPK1_pS308.M.C normalized signal (Norm_10 Average): 1.809
DAPK2.R.C normalized signal (Norm_10 Average): 0.982
DDB.1.R.V normalized signal (Norm_10 Average): 0.823
DDR1.R.V normalized signal (Norm_10 Average): 1.020
DDR1_pY513.R.C normalized signal (Norm_10 Average): 1.009
DJ1.R.V normalized signal (Norm_10 Average): 0.997
DM.Histone.H3.R.V normalized signal (Norm_10 Average): 0.900
DM.K9.Histone.H3.M.V normalized signal (Norm_10 Average): 0.982
DNA.Ligase.IV.R.C normalized signal (Norm_10 Average): 0.937
DNA_POLG.R.V normalized signal (Norm_10 Average): 1.080
c.Jun_pS73.R.V normalized signal (Norm_10 Average): 0.793
c.Kit.R.V normalized signal (Norm_10 Average): 1.213
c.Met_pY1234_Y1235.R.V normalized signal (Norm_10 Average): 0.933
c.Myc.R.C normalized signal (Norm_10 Average): 1.350
cdc2_pY15.R.C normalized signal (Norm_10 Average): 0.855
cdc25C.R.V normalized signal (Norm_10 Average): 0.849
C.Raf.R.C normalized signal (Norm_10 replicates): 1.081 and 0.699 and 0.805
C.Raf_pS338.R.V normalized signal (Norm_10 replicates): 0.823 and 0.996
CA9.R.C normalized signal (Norm_10 replicates): 0.873 and 0.916
CD2.M.C normalized signal (Norm_10 replicates): 0.952 and 0.983 and 0.955
CD4.R.V normalized signal (Norm_10 replicates): 0.995 and 0.882 and 0.915
CD5.M.C normalized signal (Norm_10 replicates): 0.953 and 1.022
CD20.R.C normalized signal (Norm_10 replicates): 0.859 and 1.349 and 1.680
CD26.R.V normalized signal (Norm_10 replicates): 0.886 and 0.919 and 1.217
CD29.M.V normalized signal (Norm_10 replicates): 0.978 and 0.970
CD31.M.V normalized signal (Norm_10 replicates): 0.934 and 1.028 and 0.917
CD38.R.C normalized signal (Norm_10 replicates): 1.013 and 0.750 and 1.046
CD44.R.C normalized signal (Norm_10 replicates): 0.886 and 1.140
CD45.M.V normalized signal (Norm_10 replicates): 0.989 and 0.991
CD49b.M.V normalized signal (Norm_10 replicates): 1.113 and 1.053
CD68.M.C normalized signal (Norm_10 replicates): 0.973 and 0.957
CD74.M.V normalized signal (Norm_10 replicates): 0.883 and 1.031 and 0.993
CD134.R.V normalized signal (Norm_10 replicates): 0.926 and 1.018 and 0.966
CD171.M.V normalized signal (Norm_10 replicates): 0.567 and 1.011 and 0.915
CDK1_pT14.R.C normalized signal (Norm_10 replicates): 0.950 and 0.703 and 1.011
CDK9.R.V normalized signal (Norm_10 replicates): 0.925 and 1.065 and 0.973
CDKN2A.R.C normalized signal (Norm_10 replicates): 0.890 and 1.007 and 0.992
CDT1.R.V normalized signal (Norm_10 replicates): 0.844 and 1.019
CENP.A.R.V normalized signal (Norm_10 replicates): 0.909 and 0.955
CHD1L.R.V normalized signal (Norm_10 replicates): 0.986 and 0.996
CIITA.R.C normalized signal (Norm_10 replicates): 0.878 and 1.138 and 1.266
COG3.R.V normalized signal (Norm_10 replicates): 1.048 and 1.011 and 0.981
